Tests used:
[1] = test system: APP levels in WT and Fmr-1 KO SN; assay: Western blot of steady-state APP levels in synaptoneurosomes; assay type: cell-based, mouse
Method: FIG. 3 is a result from western blot analysis illustrating differential regulation of APP levels in WT and KO SN. Western blots of WT (top panel) and KO (bottom panel) SN treated in the presence or absence of DHPG (at 5, 10 and 20 min of incubation) were probed with anti-APP and anti-β-actin (control) antibodies.
Western blot analysis. Aliquots of SNs were collected at 5, 10, and 20 min after DHPG treatment, quenched with an equal volume of 2×SDS sample buffer (8% SDS, 24% glycerol, 100 mM Tris (pH 6.8), 4% β-mercaptoethanol, 0.02% bromophenol blue, 2% Triton X-100, 2% deoxycholate, 2% NP-40 alternative, and 2% sarkosyl) and boiled for 5 min prior to analysis by 12% SDS-PAGE. The separated proteins were transferred to a 0.45 μm nitrocellulose membrane in Towbin buffer containing 20% methanol with a Criterion Blotter (Bio-Rad, http://www.bio-rad.com; 100 V, 4° C., 75 min). The membranes were blocked in 5% nonfat dry milk and hybridized with anti-rabbit APP antibody (dilution, 1 μg/ml) and anti-mouse β-actin antibody (dilution, 1:20,000) followed by hybridization with anti-rabbit or anti-mouse HRP-conjugated secondary antibodies (dilution, 1:2000). […]
In order to assess changes in steady-state APP levels, rather than new protein synthesis, APP was measured in WT and Fmr-1 KO SN in response to DHPG by western blot analysis (FIG. 3). […]

[2] = test system: FMRP-associated APP mRNA in WT SN; assay: FMRP immunoprecipitation and RTqPCR of associated APP mRNA in synaptoneurosomes; assay type: cell-based, mouse
Method: SNs were prepared from WT and Fmr-1 KO mouse cortical tissue (Dunkley et al., 1988, Brain Res 441: 59-71; Bagni et al., 2000, J Neuorsci 20: RC76). Briefly, mouse pups aged 14-17 d were killed by carbon dioxide asphyxiation followed by removal of the brain cortices. The cortices were washed in ice-cold gradient medium (GM buffer: 0.25 M sucrose, 5 mM Tris (pH 7.5), and 0.1 mM EDTA), transferred to a glass dounce homogenizer containing ice-cold GM buffer, and gently homogenized with five strokes of the loose pestle followed by five strokes of the tight pestle. The homogenate was spun at 1000 g for 10 min at 4° C. in round-bottom tubes to pellet cellular debris and nuclei. […] The protein concentration of the SNs was determined by Bradford assay and ranged from 200-500 ng/μl. […]
SN lysates were precleared with protein A magnetic beads and immunoprecipitated with 10 μl RNasin, 10 μg 7G1-1 antiFMRP antibody (or in the absence of antibody as a control), and 100 μl packed fresh protein A magnetic beads for 3 h at 4° C. […] The final pellet was suspended in DEPC-treated water, solubilized 10 min at 60° C., and reverse transcribed with Qiagen Omniscript and random nonamer primer (60 min at 37° C., 5 min at 93° C.). cDNA produced in this reaction was diluted 5-fold and analyzed for APP by qPCR as described immediately above. […]

mGluR5 = mGluR5 (Homo sapiens, UniProt P41594); conditions: shared allosteric modulatory site; cited from earlier work
mGluR5, sequence (P41594 21-1212): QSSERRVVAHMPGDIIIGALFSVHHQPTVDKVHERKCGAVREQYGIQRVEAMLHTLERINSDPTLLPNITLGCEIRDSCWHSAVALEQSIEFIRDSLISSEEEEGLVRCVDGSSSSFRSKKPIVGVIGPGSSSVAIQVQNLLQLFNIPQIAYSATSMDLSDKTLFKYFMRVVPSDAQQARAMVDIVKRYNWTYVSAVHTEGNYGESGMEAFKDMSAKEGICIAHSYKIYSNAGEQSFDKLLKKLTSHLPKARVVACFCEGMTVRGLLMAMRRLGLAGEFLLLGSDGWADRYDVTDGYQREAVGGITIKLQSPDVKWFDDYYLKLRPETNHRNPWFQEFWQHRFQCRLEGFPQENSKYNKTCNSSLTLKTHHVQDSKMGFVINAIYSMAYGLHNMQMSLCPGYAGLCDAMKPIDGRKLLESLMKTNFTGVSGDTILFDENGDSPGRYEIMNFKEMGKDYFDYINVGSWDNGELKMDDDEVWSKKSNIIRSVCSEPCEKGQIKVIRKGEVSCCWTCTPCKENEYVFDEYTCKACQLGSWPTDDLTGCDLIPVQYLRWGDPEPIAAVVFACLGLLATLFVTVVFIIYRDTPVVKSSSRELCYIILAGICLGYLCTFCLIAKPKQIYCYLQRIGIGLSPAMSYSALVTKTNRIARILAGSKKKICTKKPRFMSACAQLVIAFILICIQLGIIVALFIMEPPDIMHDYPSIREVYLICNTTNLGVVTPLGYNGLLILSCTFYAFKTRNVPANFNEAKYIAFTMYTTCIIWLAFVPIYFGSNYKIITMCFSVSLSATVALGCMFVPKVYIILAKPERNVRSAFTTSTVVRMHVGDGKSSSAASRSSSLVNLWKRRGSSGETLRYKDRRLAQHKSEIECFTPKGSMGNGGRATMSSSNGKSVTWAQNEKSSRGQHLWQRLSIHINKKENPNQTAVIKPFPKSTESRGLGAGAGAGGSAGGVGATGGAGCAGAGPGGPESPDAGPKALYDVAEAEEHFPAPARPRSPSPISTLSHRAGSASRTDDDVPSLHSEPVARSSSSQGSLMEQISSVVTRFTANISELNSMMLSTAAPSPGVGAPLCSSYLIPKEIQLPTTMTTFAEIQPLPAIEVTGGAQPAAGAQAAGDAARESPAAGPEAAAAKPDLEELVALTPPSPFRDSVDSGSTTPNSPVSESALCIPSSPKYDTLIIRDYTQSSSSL

[3] = test system: audiogenic seizures in Fmr-1 KO mice; conditions: intraperitoneal injections; cited from earlier work

Structure (SMILES) | increase in total APP levels ([1]; Fmr-1 KO SN, DHPG) | increase in total APP levels ([1]; WT SN, within 5 min of DHPG, n=3) [fold] | time to loss of APP mRNA-FMRP complex ([2]; WT SN contacted with DHPG) [min] | difference in FMRP-associated APP mRNA ([2]; WT SN, untreated vs 100 μM DHPG, 60 min) [fold] | mGluR5 antagonist character (mGluR5) | effect on audiogenic seizures [3]
N[C@@H](C(=O)O)c1cc(O)cc(O)c1 (racemic) [DHPG, (R,S)-3,5-dihydroxyphenylglycine] | completely absent | 1.6 | ≤ 5 | > 60 | – | –
Cc1cccc(C#Cc2ccccc2)n1 [MPEP, 2-methyl-6-(phenylethynyl)pyridine] | – | – | – | – | potent and highly selective noncompetitive antagonists | reduce
